Results as given in patent publication US20020127287A1, “Treatment of lyso paf-mediated disorders with lyso paf or paf antagonists and procedure for determining their efficacy” (priority 1990, published 2002).
Values joined by “and” are separate entries in the source; they are usually repeats but may differ in a detail not shown here. Equal values may be shown once. Marks after values point to notes of the source that are not given here. Values belong to the molecule of their own block, whether it stands above or below them.

Columns and labels:
acetylhydrolase = acetylhydrolase activity, kinetic constants; type: biochemical, human; conditions: excess AAGPC
Protocol: Acetylhydrolase activity was measured in lysates of resting platelets or platelets stimulated with thrombin (0.5 IU/ml, 1 min, 37° C.), in supernatants of thrombin-activated platelets with or without acid-treated (inactivation of acetylhydrolase) plasma and in native plasma. Samples were incubated for 10 min at 37° C. in the presence of 0.1 μCi [^3H]acetyl paf and concentrations of unlabeled paf varying from 5 to 35 μM. The microenvironment modulates the acetylhydrolase indicating the origin of plasma acetylhydrolase from activated platelets.

[1] = system: endothelial cell prostacyclin release; experiment: endothelial cell prostacyclin release (6-keto-PGF1-alpha); type: cell-based
endothelial cell = experiment: [^3H]paf binding to endothelial cells
human platelets = experiment: acetylhydrolase release from activated platelets; type: cell-based; conditions: Thrombin 0.5 IU/ml; for acetylhydrolase release: Paf 500 nM
[2] = system: lyso paf receptors on neutrophils (PMN); experiment: [^3H]lyso paf binding to neutrophils (PMN); parameters: species or system human; conditions: for effect of unlabeled ligand on [^3H]lyso paf binding: excess unlabeled paf or lyso paf 500 nM, WEB 2086 1 μM, 20° C.
eosinophils = experiment: cytosolic free calcium (fura-2) in eosinophils; type: cell-based, human; conditions: EGTA 2 mM
Protocol: (§1) The concentration of cytosolic free calcium [Ca^2+]i was measured using the [Ca^2+]i indicator fura-2-acetoxymethyl ester (fura-2). […] The spectrofluorophotometer was programmed to shuttle between the two excitation wavelengths of 340 and 380 nm every 5 sec while keeping the emission wavelength of 505 nm. […] Background values were subtracted from all data. The intracellular Ca^2+ was calculated with the formula [[…] is KD of the fura-2 multiplied with the quotient of the fluorescence at 380 nm from the minimal and the maximal [Ca^2+]i fluorescence.

PMN = experiment: cytosolic free calcium (fura-2) in PMN; type: cell-based, human
Protocol: as §1

[3] = biological target: T1, paf receptors on neutrophils (PMN) (Homo sapiens, UniProt P25105); experiment: [^3H]paf binding to intact human neutrophils (PMN)
T1 construct: Neutrophils (PMN) were prepared from venous blood (40 ml) from normal donors; endogenous in cells; host or cells: intact neutrophils (PMN) from venous blood of normal donors

[4] = biological target: T2, paf receptors on eosinophils (Homo sapiens, UniProt P25105); experiment: [^3H]paf binding to intact human eosinophils
T2 construct: endogenous in cells; host or cells: intact human blood eosinophils (about 96% pure)

U 937 cells = experiment: cAMP levels of U 937 cells; type: cell-based; conditions: cholesterol 60 μg/ml, 24 hrs
Protocol: U 937 cells were grown in stationary suspension culture in RPMI 1640 containing 10% fetal calf serum (FCS) and 2 mM L-glutamine at 37° C. in a humidified atmosphere of 5% CO2 and 95% air. The cells were diluted with fresh medium (1/10, v/v) twice a week. After three days in culture, U 937 cells were centrifuged (1000×G for 10 min) and incubated for 24 hrs in RPMI 1640 medium containing 10% CPSR 1 (delipidated FCS) and 2 mM L-glutamine. Subsequently the cells were incubated in the delipidated FCS medium containing cholesterol (10-60 μg/ml), as compared with solvent alone (ethanol, 0.5% v/v, final concentration) for (2, 4 or 24 hrs).
Cyclic AMP in supernatants from cholesterol-treated and control cells, were measured by the Rianen [^125I]cAMP-RIA Kit. Briefly, cholesterol (60 μg/ml, 24 hrs) or cholesterol vehicle (ethanol) were added after 24 hrs cell incubation in delipidated FCS medium. Cells were subsequently washed three times and resuspended (5×10^6, final concentration) in Hanks Hepes (HH)-buffer, pH 7.4 with ascorbinic acid (10 mM) and cAMP-phosphodiesterase inhibitor IBMX (1 mM). Cell suspension (100 μl) was added to 400 μl of the cAMP buffer for 30 min at 20° C. […] Values are from one experiment (representative of three) expressed as pmol cAMP per 10^6 cells. Total proteins were measured by standard procedure.

[5] = Add. 5 nM, [^3H]paf […], 20° C., 30 min, WEB 2086 1 μM

T2 sequence (P25105 whole entry): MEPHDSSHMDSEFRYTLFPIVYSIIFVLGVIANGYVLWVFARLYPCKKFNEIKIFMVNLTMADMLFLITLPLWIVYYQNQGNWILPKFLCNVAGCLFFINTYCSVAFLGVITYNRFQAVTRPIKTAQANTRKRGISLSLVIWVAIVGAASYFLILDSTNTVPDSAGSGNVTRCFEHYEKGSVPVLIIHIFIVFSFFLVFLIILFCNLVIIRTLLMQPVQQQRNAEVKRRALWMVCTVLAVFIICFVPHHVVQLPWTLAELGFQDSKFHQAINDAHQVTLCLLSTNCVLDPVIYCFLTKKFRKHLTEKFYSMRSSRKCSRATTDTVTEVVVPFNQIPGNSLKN
T1 sequence (P25105 whole entry): as above

inhibition of acetylhydrolase activity (acetylhydrolase): not inhibited
Molecule: CCCCCCCCCCCCCCCCOCC(COP(=O)([O-])OCC[N+](C)(C)C)OC(=O)CCCCCCCCCCCCCCC (stereo not shown) [AAGPC, 1-O-hexadecyl-2-palmitoyl-GPC]

Molecule: CC1C(=O)OC2C(O)C34C5CC(C(C)(C)C)C36C(OC(=O)C6O)OC4(C(=O)O5)C12O (stereo not shown) [BU 52021]
endothelial cell prostacyclin release ([1]; 10 μM, increased from 50±2): 126±10 pg per ml

Molecule: CC(=O)Oc1ccccc1C(=O)O.NCCCCC(N)C(=O)O [Lysine aspirin]
endothelial cell bound [^3H]paf, % of the total binding (endothelial cell): 177% and 198%

Molecule: Thrombin
released of the total acetylhydrolase (human platelets; paf 500 nM, mean±S.E., n=3): 17.2±3.1% | acetylhydrolase release (human platelets; stimulation 0 sec): 2.2 ± 0.9 percentage of the total content of acetylhydrolase | acetylhydrolase release (human platelets; stimulation 15 sec): 8.5 ± 0.7 percentage of the total content of acetylhydrolase | acetylhydrolase release (human platelets; stimulation 30 sec): 13.1 ± 3.9 percentage of the total content of acetylhydrolase | acetylhydrolase release (human platelets; stimulation 60 sec): 12.8 ± 5.1 percentage of the total content of acetylhydrolase | acetylhydrolase release (human platelets; stimulation 120 sec): 10.9 ± 3.1 percentage of the total content of acetylhydrolase | acetylhydrolase release (human platelets; stimulation 180 sec): 17.9 ± 2.6 percentage of the total content of acetylhydrolase | acetylhydrolase release (human platelets; stimulation 300 sec): 17.2 ± 3.1 percentage of the total content of acetylhydrolase

effect of excess unlabeled ligand on [^3H]paf binding ([3]; paf 500 nM, WEB 2086 1 μM): inhibited | specific [^3H]paf binding, plateau values ([4]; 20° C., 30 min, WEB 2086 400 nM, 3 experiments): 25.8 ± 8.1 fmol | specific [^3H]paf binding ([4]; 20° C., 30 min, WEB 2086 400 nM, 3 other experiments, no inhibitory effect): 4.3 ± 3.3 fmol | specific [^3H]paf binding, maximal plateau values ([4]; 20 hrs at 4° C., assessed with unlabeled paf 500 nM or WEB 2086 400 nM): 14.8±5.1 fmol per 2.5×10^5 cells | specific [^3H]paf binding ([4]; addition 0 nM, WEB 2086 400 nM, 20° C., 30 min): 15.1 ± 8.0^1) fmol per 2.5×10^5 cells
Molecule: Cc1nnc2n1-c1sc(CCC(=O)N3CCOCC3)cc1C(c1ccccc1Cl)=NC2 [WEB 2086, 3-(4-(2-chlorophenyl)-9-methyl-6H-thieno(3,2-f) (1,2,4)triazolo-(4,3-a)-(1,4)diazepine-2-yl)-1-(4-morpholinyl)-1-propanone]
effect of unlabeled ligand on [^3H]lyso paf binding [2]: inefficient | binding of […] [^3H]lyso paf ([2]; paf 5 nM with WEB 2086 1 μM): 212.0±6.4 fmol/2.5×10^6 PMN | effect on paf-mediated [Ca^2+]i rise (eosinophils): competitively inhibited | effect on paf-induced Ca^2+ flux (PMN; WEB 2086 1 μM, 3 min preincubation): shifted to the right the paf dose-response curve | increased phospholipid binding (lysine aspirin) antagonized (endothelial cell): antagonized | 6-keto-PGF1-alpha ([1]; 100 nM WEB 2086, increased from 127±3): 145±11 pg per ml

Molecule: 2-lyso phosphocholine [LPC]
[^3H]paf binding [3, 5]: 322 ± 22 fmol [^3H]paf bound per 2.5×10^6 PMN | interference with [3H]paf binding [4]: did not interfere

Molecule: CCCCCCCCCCCCCCCCCCNC(=O)OCC(COP(=O)([O-])OCC[n+]1ccsc1)OC (racemic) [CV 3988, rac-3-(N-n-octadecylcarbamoyloxy)-2-methoxypropyl 2-tiazolioethyl phosphate]
increased phospholipid binding (lysine aspirin) antagonized (endothelial cell): antagonized

Molecule: CCCCCCCCCCCCCCCCCCOC[C@H](COP(=O)([O-])OCC[N+](C)(C)C)OC(C)=O [[^3H]paf] [1-O-[^3H]-octadecyl-2-acetyl-sn-glycero-3-phosphocholine]
Kd ([3]; 4° C.): 0.44 nM | total binding of [^3H]paf ([3]; 4° C.): 157.0±27.4 fmol per 2.5×10^6 cells | total binding of [^3H]paf ([3]; 20° C.): 310.5±13.0 fmol per 2.5×10^6 cells | binding sites per eosinophil [4]: 85×10^3 sites per eosinophil | Bmax ([4]; 20 hrs at 4° C.): 35.4 fmol per 2.5×10^5 cells | Kd ([4]; 20 hrs at 4° C., read-out: binding affinity (Kd) on eosinophils): 5.5 nM

Molecule: CCCCCCCCCCCCCCCCCCOC[C@@H](O)COP(=O)([O-])OCC[N+](C)(C)C [lyso paf, 1-octadecyl-sn-glycero-3-phosphocholine]
effect of unlabeled ligand on [^3H]lyso paf binding [2]: inhibited | cytoplasmic Ca^2+ flux in response to agonist (PMN; 1 to 500 nM, CaCl2 1.3 mM or EGTA 2 mM): induced neither [Ca^2+]i entry nor mobilization | [^3H]paf binding [3, 5]: 354 ± 20 fmol [^3H]paf bound per 2.5×10^6 PMN | [^3H]paf binding ([3]; Add. 10 nM, [^3H]paf […], 20° C., 30 min, WEB 2086 1 μM): 243 ± 16 fmol [^3H]paf bound per 2.5×10^6 PMN | [^3H]paf binding ([3]; Add. 50 nM, [^3H]paf […], 20° C., 30 min, WEB 2086 1 μM): 240 ± 18 fmol [^3H]paf bound per 2.5×10^6 PMN | interference with [3H]paf binding [4]: did not interfere | specific [^3H]paf binding ([4]; addition 5 nM, WEB 2086 400 nM, 20° C., 30 min): 1.5 ± 1.7 fmol per 2.5×10^5 cells | specific [^3H]paf binding ([4]; addition 10 nM, WEB 2086 400 nM, 20° C., 30 min): 1.2 ± 1.6 fmol per 2.5×10^5 cells | specific [^3H]paf binding ([4]; addition 50 nM, WEB 2086 400 nM, 20° C., 30 min): 4.4 ± 3.7 fmol per 2.5×10^5 cells

Molecule: CC(C)CCC[C@@H](C)[C@H]1CC[C@H]2[C@@H]3CC=C4C[C@@H](O)CC[C@]4(C)[C@H]3CC[C@]12C [Cholesterol, cholesterol]
release of cAMP levels (U 937 cells): increased

Molecule: CCCCCCCCCCCCCC(=O)O[C@@H]1[C@@H](C)[C@@]2(O)[C@@H](C=C(CO)C[C@]3(O)C(=O)C(C)=C[C@@H]23)[C@@H]2C(C)(C)[C@]12OC(C)=O [PMA, phorbol-12-myristate-13-acetate]
[^3H]paf binding ([3]; PMA 1 nM, preincubation 0 min at 37° C.): 385 fmol [^3H]paf bound per 2.5×10^6 PMN | [^3H]paf binding ([3]; PMA 1 nM, preincubation 15 min at 37° C.): 413 fmol [^3H]paf bound per 2.5×10^6 PMN | [^3H]paf binding ([3]; PMA 16 nM, preincubation 0 min at 37° C.): 219 fmol [^3H]paf bound per 2.5×10^6 PMN | [^3H]paf binding ([3]; PMA 16 nM, preincubation 15 min at 37° C.): 171 fmol [^3H]paf bound per 2.5×10^6 PMN

Molecule: COc1ccc(SCC(=S)N2CCc3c(sc4c3C(c3ccccc3Cl)=NCc3nnc(C)n3-4)C2)cc1OC [BN 50 739]
inhibited endothelial cell bound [^3H]paf (endothelial cell; 20 μM): 5.8 fmol
